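1) Cells in 96-well plates. 2) Compound, 48 h, 5 concentrations. 3) Linear interpolation between surrounding doses. 4) Unreached endpoint = highest concentration. At the TGI there is no net growth.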

Four compounds from PubChem BioAssay (NCI) can be followed below.

The test system of the first assay is SW-620 colon. Nature of the assay: NCI-60 cell line screen, 48 h.
In the case of `CCCCCCCCCCCCCCNC(=O)CCC(NC(=O)c1ccc(N(C)Cc2cnc3nc(N)nc(N)c3n2)cc1)C(=O)NCCCCCCCCCCCCCC` (stereo unspecified), the TGI is > 43 µM.
As to `C[C@@H](NC(=O)[C@@H]1C[C@]1(C)COC(=O)c1cc([N+](=O)[O-])cc([N+](=O)[O-])c1)c1cccc2ccccc12`, the TGI is > 100 µM.
As for `COC(=O)c1cc(=O)nc2sc3cccc(C)c3n12`, the TGI is > 100 µM.
As for `O=c1[nH]c(Nc2cccc(CC(F)(F)F)c2)nc2nc[nH]c12`, the TGI was > 100 µM.

A further assay has as its system HT29 colon. As to the kind of experiment: NCI-60 cell line screen, 48 h.
As to `CCCCCCCCCCCCCCNC(=O)CCC(NC(=O)c1ccc(N(C)Cc2cnc3nc(N)nc(N)c3n2)cc1)C(=O)NCCCCCCCCCCCCCC` (stereo unspecified), the TGI worked out at 27 µM.
Take `C[C@@H](NC(=O)[C@@H]1C[C@]1(C)COC(=O)c1cc([N+](=O)[O-])cc([N+](=O)[O-])c1)c1cccc2ccccc12`: the TGI was > 100 µM.
In the case of `COC(=O)c1cc(=O)nc2sc3cccc(C)c3n12`, the TGI was > 100 µM.
With `O=c1[nH]c(Nc2cccc(CC(F)(F)F)c2)nc2nc[nH]c12`, the TGI is > 100 µM.

A further assay concerns HS 578T breast. Nature of the assay: NCI-60 cell line screen, 48 h.
Take `CCCCCCCCCCCCCCNC(=O)CCC(NC(=O)c1ccc(N(C)Cc2cnc3nc(N)nc(N)c3n2)cc1)C(=O)NCCCCCCCCCCCCCC` (stereo unspecified): the TGI came to 29.1 µM.
Take `C[C@@H](NC(=O)[C@@H]1C[C@]1(C)COC(=O)c1cc([N+](=O)[O-])cc([N+](=O)[O-])c1)c1cccc2ccccc12`: the TGI is > 100 µM.
The same measure, in the same setting: under `COC(=O)c1cc(=O)nc2sc3cccc(C)c3n12` stands > 100 µM; under `O=c1[nH]c(Nc2cccc(CC(F)(F)F)c2)nc2nc[nH]c12`, > 100 µM.

The next assay deals with OVCAR-3 ovarian. As to the kind of experiment: NCI-60 cell line screen, 48 h.
Consider `CCCCCCCCCCCCCCNC(=O)CCC(NC(=O)c1ccc(N(C)Cc2cnc3nc(N)nc(N)c3n2)cc1)C(=O)NCCCCCCCCCCCCCC` (stereo unspecified), for which the TGI is > 46 µM.
Take `C[C@@H](NC(=O)[C@@H]1C[C@]1(C)COC(=O)c1cc([N+](=O)[O-])cc([N+](=O)[O-])c1)c1cccc2ccccc12`: the TGI is > 100 µM.
For `COC(=O)c1cc(=O)nc2sc3cccc(C)c3n12`, the TGI came to 82.8 µM.
As to `O=c1[nH]c(Nc2cccc(CC(F)(F)F)c2)nc2nc[nH]c12`, the TGI was > 100 µM.

Another assay has as its system RXF 393 renal. Nature of the assay: NCI-60 cell line screen, 48 h.
On to `CCCCCCCCCCCCCCNC(=O)CCC(NC(=O)c1ccc(N(C)Cc2cnc3nc(N)nc(N)c3n2)cc1)C(=O)NCCCCCCCCCCCCCC` (stereo unspecified), for which the TGI stood at 34.2 µM.
Take `C[C@@H](NC(=O)[C@@H]1C[C@]1(C)COC(=O)c1cc([N+](=O)[O-])cc([N+](=O)[O-])c1)c1cccc2ccccc12`: the TGI was > 100 µM.
Turning to `COC(=O)c1cc(=O)nc2sc3cccc(C)c3n12`, the TGI is > 100 µM.

The next assay deals with UO-31 renal. Nature of the assay: NCI-60 cell line screen, 48 h.
As for `CCCCCCCCCCCCCCNC(=O)CCC(NC(=O)c1ccc(N(C)Cc2cnc3nc(N)nc(N)c3n2)cc1)C(=O)NCCCCCCCCCCCCCC` (stereo unspecified), the TGI was 53.6 µM.
With `C[C@@H](NC(=O)[C@@H]1C[C@]1(C)COC(=O)c1cc([N+](=O)[O-])cc([N+](=O)[O-])c1)c1cccc2ccccc12`, the TGI is > 100 µM.
On the same count and under the same terms, under `O=c1[nH]c(Nc2cccc(CC(F)(F)F)c2)nc2nc[nH]c12` stands > 100 µM.

The next assay relates to HL-60(TB) leukemia. Nature of the assay: NCI-60 cell line screen, 48 h.
For the compound `CCCCCCCCCCCCCCNC(=O)CCC(NC(=O)c1ccc(N(C)Cc2cnc3nc(N)nc(N)c3n2)cc1)C(=O)NCCCCCCCCCCCCCC` (stereo unspecified), the TGI is 0.758 µM.
In turn, `COC(=O)c1cc(=O)nc2sc3cccc(C)c3n12` gave a TGI of 62.6 µM.
The same measure, in the same setting: the result for `O=c1[nH]c(Nc2cccc(CC(F)(F)F)c2)nc2nc[nH]c12` reads > 100 µM.

Another assay relates to T-47D breast. Nature of the assay: NCI-60 cell line screen, 48 h.
Take `CCCCCCCCCCCCCCNC(=O)CCC(NC(=O)c1ccc(N(C)Cc2cnc3nc(N)nc(N)c3n2)cc1)C(=O)NCCCCCCCCCCCCCC` (stereo unspecified): the TGI stood at 38.5 µM.
With `C[C@@H](NC(=O)[C@@H]1C[C@]1(C)COC(=O)c1cc([N+](=O)[O-])cc([N+](=O)[O-])c1)c1cccc2ccccc12`, the TGI was > 100 µM.
Consider `COC(=O)c1cc(=O)nc2sc3cccc(C)c3n12`, for which the TGI was > 100 µM.
As for `O=c1[nH]c(Nc2cccc(CC(F)(F)F)c2)nc2nc[nH]c12`, the TGI was > 100 µM.

The test system of the next assay is PC-3 prostate. As to the kind of experiment: NCI-60 cell line screen, 48 h.
`CCCCCCCCCCCCCCNC(=O)CCC(NC(=O)c1ccc(N(C)Cc2cnc3nc(N)nc(N)c3n2)cc1)C(=O)NCCCCCCCCCCCCCC` (stereo unspecified): the TGI came to 22.5 µM.
The same measure, in the same setting: the result for `C[C@@H](NC(=O)[C@@H]1C[C@]1(C)COC(=O)c1cc([N+](=O)[O-])cc([N+](=O)[O-])c1)c1cccc2ccccc12` reads > 100 µM; that for `COC(=O)c1cc(=O)nc2sc3cccc(C)c3n12`, > 100 µM.
In the case of `O=c1[nH]c(Nc2cccc(CC(F)(F)F)c2)nc2nc[nH]c12`, the TGI is > 100 µM.

Another assay concerns HOP-62 NSCLC. Nature of the assay: NCI-60 cell line screen, 48 h.
`CCCCCCCCCCCCCCNC(=O)CCC(NC(=O)c1ccc(N(C)Cc2cnc3nc(N)nc(N)c3n2)cc1)C(=O)NCCCCCCCCCCCCCC` (stereo unspecified) displayed a TGI of 21.2 µM.
For `C[C@@H](NC(=O)[C@@H]1C[C@]1(C)COC(=O)c1cc([N+](=O)[O-])cc([N+](=O)[O-])c1)c1cccc2ccccc12`, the TGI was > 100 µM.
In the case of `COC(=O)c1cc(=O)nc2sc3cccc(C)c3n12`, the TGI is > 100 µM.
With `O=c1[nH]c(Nc2cccc(CC(F)(F)F)c2)nc2nc[nH]c12`, the TGI is > 100 µM.

The test system of the next assay is A498 renal. As to the kind of experiment: NCI-60 cell line screen, 48 h.
With `CCCCCCCCCCCCCCNC(=O)CCC(NC(=O)c1ccc(N(C)Cc2cnc3nc(N)nc(N)c3n2)cc1)C(=O)NCCCCCCCCCCCCCC` (stereo unspecified), the TGI stood at 34.5 µM.
With `C[C@@H](NC(=O)[C@@H]1C[C@]1(C)COC(=O)c1cc([N+](=O)[O-])cc([N+](=O)[O-])c1)c1cccc2ccccc12`, the TGI is > 100 µM.
On to `O=c1[nH]c(Nc2cccc(CC(F)(F)F)c2)nc2nc[nH]c12`, for which the TGI is > 100 µM.

The test system of the next assay is SNB-75 CNS. Nature of the assay: NCI-60 cell line screen, 48 h.
The compound `CCCCCCCCCCCCCCNC(=O)CCC(NC(=O)c1ccc(N(C)Cc2cnc3nc(N)nc(N)c3n2)cc1)C(=O)NCCCCCCCCCCCCCC` (stereo unspecified) gave a TGI of 34.8 µM.
Take `C[C@@H](NC(=O)[C@@H]1C[C@]1(C)COC(=O)c1cc([N+](=O)[O-])cc([N+](=O)[O-])c1)c1cccc2ccccc12`: the TGI is > 100 µM.
Turning to `COC(=O)c1cc(=O)nc2sc3cccc(C)c3n12`, the TGI is > 100 µM.
As for `O=c1[nH]c(Nc2cccc(CC(F)(F)F)c2)nc2nc[nH]c12`, the TGI is > 100 µM.

The subject of a further assay is DU-145 prostate. As to the kind of experiment: NCI-60 cell line screen, 48 h.
Regarding `CCCCCCCCCCCCCCNC(=O)CCC(NC(=O)c1ccc(N(C)Cc2cnc3nc(N)nc(N)c3n2)cc1)C(=O)NCCCCCCCCCCCCCC` (stereo unspecified), the TGI is > 100 µM.
For the compound `C[C@@H](NC(=O)[C@@H]1C[C@]1(C)COC(=O)c1cc([N+](=O)[O-])cc([N+](=O)[O-])c1)c1cccc2ccccc12`, the TGI was > 100 µM.
Consider `COC(=O)c1cc(=O)nc2sc3cccc(C)c3n12`, for which the TGI was > 100 µM.
The same measure, in the same setting: the result for `O=c1[nH]c(Nc2cccc(CC(F)(F)F)c2)nc2nc[nH]c12` reads > 100 µM.

In a further assay the test system is MALME-3M melanoma. As to the kind of experiment: NCI-60 cell line screen, 48 h.
For `C[C@@H](NC(=O)[C@@H]1C[C@]1(C)COC(=O)c1cc([N+](=O)[O-])cc([N+](=O)[O-])c1)c1cccc2ccccc12`, the TGI was 51 µM.
`COC(=O)c1cc(=O)nc2sc3cccc(C)c3n12` had a TGI of 70.1 µM.
Take `O=c1[nH]c(Nc2cccc(CC(F)(F)F)c2)nc2nc[nH]c12`: the TGI is > 100 µM.

Another assay has as its system MDA-MB-435. Nature of the assay: NCI-60 cell line screen, 48 h.
For `CCCCCCCCCCCCCCNC(=O)CCC(NC(=O)c1ccc(N(C)Cc2cnc3nc(N)nc(N)c3n2)cc1)C(=O)NCCCCCCCCCCCCCC` (stereo unspecified), the TGI is 25.6 µM.
On to `C[C@@H](NC(=O)[C@@H]1C[C@]1(C)COC(=O)c1cc([N+](=O)[O-])cc([N+](=O)[O-])c1)c1cccc2ccccc12`, for which the TGI is > 100 µM.
In the case of `COC(=O)c1cc(=O)nc2sc3cccc(C)c3n12`, the TGI was > 100 µM.
In the case of `O=c1[nH]c(Nc2cccc(CC(F)(F)F)c2)nc2nc[nH]c12`, the TGI is > 100 µM.

The test system of a further assay is MOLT-4 leukemia. As to the kind of experiment: NCI-60 cell line screen, 48 h.
Compound `CCCCCCCCCCCCCCNC(=O)CCC(NC(=O)c1ccc(N(C)Cc2cnc3nc(N)nc(N)c3n2)cc1)C(=O)NCCCCCCCCCCCCCC` (stereo unspecified) came in with a TGI of 27.3 µM.
